Experimental data as given in ChEMBL document CHEMBL2021850, “Steroidal C-21 heteroaryl thioethers. Part 3: pregn-4-eno-[3,2-c]pyrazole fused A ring modified steroids as selective glucocorticoid receptor modulators (dissociated steroids)” (Bioorg Med Chem Lett, 2012).

Tests used:
Glucocorticoid receptor [1] = target: T1, Glucocorticoid receptor (Homo sapiens, UniProt P04150); assay: Transrepression activity at glucocorticoid receptor in human H292 cells assessed as inhibition of TNF-induced IL8 production; type: cell-based
T1 sequence (P04150 whole entry): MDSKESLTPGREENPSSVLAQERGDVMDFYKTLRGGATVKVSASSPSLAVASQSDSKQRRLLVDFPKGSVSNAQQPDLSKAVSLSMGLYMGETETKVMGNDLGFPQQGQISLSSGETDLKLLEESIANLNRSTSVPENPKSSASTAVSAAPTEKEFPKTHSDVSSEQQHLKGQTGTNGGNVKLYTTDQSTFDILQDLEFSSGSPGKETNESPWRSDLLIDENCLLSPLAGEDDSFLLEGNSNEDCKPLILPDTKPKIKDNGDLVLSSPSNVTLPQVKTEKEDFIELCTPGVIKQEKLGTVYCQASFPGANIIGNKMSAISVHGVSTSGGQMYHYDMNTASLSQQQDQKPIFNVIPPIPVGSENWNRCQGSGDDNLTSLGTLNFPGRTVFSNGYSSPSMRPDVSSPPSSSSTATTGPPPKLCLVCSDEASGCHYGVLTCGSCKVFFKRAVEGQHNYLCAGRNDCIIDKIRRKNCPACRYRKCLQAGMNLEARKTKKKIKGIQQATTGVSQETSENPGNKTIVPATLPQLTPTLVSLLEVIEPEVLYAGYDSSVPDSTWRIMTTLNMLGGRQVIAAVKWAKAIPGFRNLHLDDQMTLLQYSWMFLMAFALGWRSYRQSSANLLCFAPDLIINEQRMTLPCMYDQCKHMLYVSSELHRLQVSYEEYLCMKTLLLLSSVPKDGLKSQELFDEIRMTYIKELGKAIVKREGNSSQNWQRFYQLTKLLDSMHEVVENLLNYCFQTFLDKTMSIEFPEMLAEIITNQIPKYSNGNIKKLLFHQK

Glucocorticoid receptor [2] = target: T1, Glucocorticoid receptor; assay: Transactivation activity at glucocorticoid receptor in human HepG2 cells assessed as induction of tyrosine aminotransferase; type: ADME, cell-based
Glucocorticoid receptor [3] = target: T2, Glucocorticoid receptor (Rattus norvegicus, UniProt P06536); assay: Transactivation activity at glucocorticoid receptor in rat H4II-E cells assessed as induction of tyrosine aminotransferase; type: ADME, cell-based
T2 sequence (P06536 whole entry): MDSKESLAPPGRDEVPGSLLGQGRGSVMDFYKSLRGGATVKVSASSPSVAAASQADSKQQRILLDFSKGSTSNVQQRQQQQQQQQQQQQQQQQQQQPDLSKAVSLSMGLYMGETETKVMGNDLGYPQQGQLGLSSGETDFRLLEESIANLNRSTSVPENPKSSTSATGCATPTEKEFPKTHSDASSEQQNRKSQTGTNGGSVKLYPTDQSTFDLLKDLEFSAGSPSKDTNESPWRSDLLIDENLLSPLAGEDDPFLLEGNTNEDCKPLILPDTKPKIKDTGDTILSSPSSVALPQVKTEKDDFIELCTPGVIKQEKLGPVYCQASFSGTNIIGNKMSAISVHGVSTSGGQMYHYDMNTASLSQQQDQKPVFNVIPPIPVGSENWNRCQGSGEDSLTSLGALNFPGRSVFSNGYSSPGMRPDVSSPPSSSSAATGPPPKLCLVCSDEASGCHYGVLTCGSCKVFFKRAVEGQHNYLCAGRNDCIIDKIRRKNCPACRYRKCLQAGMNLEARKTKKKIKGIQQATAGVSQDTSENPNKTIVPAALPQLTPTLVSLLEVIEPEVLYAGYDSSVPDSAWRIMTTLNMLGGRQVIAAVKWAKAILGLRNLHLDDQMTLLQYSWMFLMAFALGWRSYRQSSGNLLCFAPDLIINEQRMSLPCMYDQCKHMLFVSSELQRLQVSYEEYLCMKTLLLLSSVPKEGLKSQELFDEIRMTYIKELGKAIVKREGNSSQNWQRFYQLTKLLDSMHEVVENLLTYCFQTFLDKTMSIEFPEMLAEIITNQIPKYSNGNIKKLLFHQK

Glucocorticoid receptor [4] = target: T1, Glucocorticoid receptor; assay: Transactivation activity at human glucocorticoid receptor in cells co-expressing GRE by luciferase reporter gene assay; details: read-out: IC50 (the source's name)
Glucocorticoid receptor [5] = target: T1, Glucocorticoid receptor; assay: Transactivation activity at human glucocorticoid receptor in cells co-expressing GRE by luciferase reporter gene assay relative to control; details: read-out: Efficacy
[6] = AUC in po dosed rat; type: ADME, organism-based; details: plasma
[7] = Cmax in po dosed rat; type: ADME, organism-based; set-up: route oral; details: in vivo
Rattus norvegicus [8] = assay: Antiinflammatory activity in Brown Norway rat lung inflammation model assessed as total cell inhibition at 10 mg/kg, po for 3 days; type: functional; details: 72 h
Rattus norvegicus [9] = assay: Transactivation activity in Brown Norway rat lung inflammation model assessed as thymolysis measuring decrease in thymus weight at 10 mg/kg, po for 3 days; type: organism-based; set-up: dose 10 mg/kg, route oral; scale not given: the % may be the effect or the level left; details: in vivo, 72 h
Glucocorticoid receptor [10] = target: T1, Glucocorticoid receptor; assay: Inhibition of human glucocorticoid receptor
Rattus norvegicus [11] = assay: Antiinflammatory activity in Brown Norway rat lung inflammation model assessed as total cell inhibition at 2 mg/kg, it; type: functional; details: route endotracheal

| Compound | IC50 (Glucocorticoid receptor [1]) [nM] | IC50 (Glucocorticoid receptor [2]) [nM] | IC50 (Glucocorticoid receptor [3]) [nM] | EC50 (Glucocorticoid receptor [4]) [nM] | Emax (Glucocorticoid receptor [5]) [%] | AUC [6] [ng·h/mL] | Cmax [7] [ng/mL] | inhibition in vivo at 10 mg/kg (Rattus norvegicus [8]) [%] | Activity (Rattus norvegicus [9]) [%] | IC50 (Glucocorticoid receptor [10]) [nM] | inhibition in vivo at 2 mg/kg (Rattus norvegicus [11]) [%] |
| --- | --- | --- | --- | --- | --- | --- | --- | --- | --- | --- | --- |
| C[C@]12Cc3cnn(-c4ccccc4)c3C=C1CC[C@@H]1[C@@H]2[C@@H](O)C[C@@]2(C)[C@H]1CC[C@]2(O)C(=O)CSc1ccccn1 | 1.5 | 596 | 225 | 8.4 | 102 |  |  |  |  |  |  |
| C[C@]12C=CC(=O)C=C1CC[C@@H]1[C@@H]2[C@@H](O)C[C@@]2(C)[C@H]1CC[C@]2(O)C(=O)CO [PREDNISOLONE] |  |  |  |  |  | 1250 | 682 | 56 | 53 |  |  |
| C[C@]12CCC(=O)C=C1CC[C@@H]1[C@@H]2[C@@H](O)C[C@@]2(C)[C@H]1CC[C@]2(O)C(=O)CSc1cnc2ccccc2n1 | 22.1 |  |  |  | 1 | 274 | 255 | 39 | 0 |  |  |
| C[C@]12Cc3cnn(C4CCCCC4)c3C=C1CC[C@@H]1[C@@H]2[C@@H](O)C[C@@]2(C)[C@H]1CC[C@]2(O)C(=O)CSc1ncccn1 | 7.3 | 1000 |  | 137 | 76 |  |  |  |  |  |  |
| Cc1nc(SCC(=O)[C@@]2(O)CC[C@H]3[C@@H]4CCC5=Cc6c(cnn6C6CCCCC6)C[C@]5(C)[C@H]4[C@@H](O)C[C@@]32C)sc1C | 2.8 | 168 | 135 | 31.8 | 88 |  |  |  |  |  |  |
| C[C@]12CCC(=O)C=C1CC[C@@H]1[C@@H]2[C@@H](O)C[C@@]2(C)[C@H]1CC[C@]2(O)C(=O)CSc1nc2ccccc2o1 | 26.7 |  |  |  | 35 |  |  |  |  | 3.9 |  |
| Cc1nc(SCC(=O)[C@@]2(O)CC[C@H]3[C@@H]4CCC5=CC(=O)CC[C@]5(C)[C@H]4[C@@H](O)C[C@@]32C)sc1C | 21.9 |  |  |  | 57 |  |  |  |  | 4.3 |  |
| C[C@]12Cc3cnn(-c4ccc(F)cc4)c3C=C1CC[C@@H]1[C@@H]2[C@@H](O)C[C@@]2(C)[C@H]1CC[C@]2(O)C(=O)CSc1nc2ncccc2o1 | 0.32 | 38.6 | 13.3 |  |  | 1630 | 348 | 48 | 70 |  |  |
| C[C@]12CCC(=O)C=C1CC[C@@H]1[C@@H]2[C@@H](O)C[C@@]2(C)[C@H]1CC[C@]2(O)C(=O)CSc1nc2ncccc2s1 | 59.1 |  |  |  | 16 |  |  |  |  | 4.7 |  |
| C[C@]12Cc3cnn(-c4ccc(F)cc4)c3C=C1CC[C@@H]1[C@@H]2[C@@H](O)C[C@@]2(C)[C@H]1CC[C@]2(O)C(=O)CO | 0.4 | 40.9 | 3.2 |  |  | 1040 | 240 |  |  |  |  |
| C=CCn1c(SCC(=O)[C@@]2(O)CC[C@H]3[C@@H]4CCC5=Cc6c(cnn6-c6ccccc6)C[C@]5(C)[C@H]4[C@@H](O)C[C@@]32C)nc2ccccc21 | 3.43 | 278 | 258 | 28.6 | 86 |  |  |  |  |  |  |
| C[C@]12Cc3cnn(C4CCCCC4)c3C=C1CC[C@@H]1[C@@H]2[C@@H](O)C[C@@]2(C)[C@H]1CC[C@]2(O)C(=O)CO | 2.37 |  |  | 5.57 | 96 |  |  |  |  |  |  |
| C[C@]12Cc3cnn(-c4ccc(F)cc4)c3C=C1CC[C@@H]1[C@@H]2[C@@H](O)C[C@@]2(C)[C@H]1CC[C@]2(O)C(=O)CSc1cnc2ccccc2n1 | 1.99 |  |  |  |  |  |  |  |  |  | 9 |
| C[C@]12CCC(=O)C=C1CC[C@@H]1[C@@H]2[C@@H](O)C[C@@]2(C)[C@H]1CC[C@]2(O)C(=O)CSc1ccc2ccccc2n1 | 89.3 |  |  |  | 0 |  |  |  |  | 6.6 |  |
| C[C@]12Cc3cnn(-c4ccccc4)c3C=C1CC[C@@H]1[C@@H]2[C@@H](O)C[C@@]2(C)[C@H]1CC[C@]2(O)C(=O)CSc1nc2ncccc2o1 | 0.89 | 37.7 | 33.8 |  | 83 | 2030 | 467 | 62 | 67 |  |  |
| C[C@]12Cc3cnn(-c4ccccc4)c3C=C1CC[C@@H]1[C@@H]2[C@@H](O)C[C@@]2(C)[C@H]1CC[C@]2(O)C(=O)CSc1cnc2ccccc2n1 | 5.36 | 226 | 113 |  | 68 | 64 | 21 |  |  |  | 28 |
| C[C@]12CCC(=O)C=C1CC[C@@H]1[C@@H]2[C@@H](O)C[C@@]2(C)[C@H]1CC[C@]2(O)C(=O)CSc1ccccn1 | 23.8 |  |  |  | 14 |  |  |  |  | 14.9 |  |
| C[C@]12Cc3cnn(-c4ccccc4)c3C=C1CC[C@@H]1[C@@H]2[C@@H](O)C[C@@]2(C)[C@H]1CC[C@]2(O)C(=O)CO | 0.63 | 143 | 3.23 |  |  | 2480 | 628 |  |  |  |  |
| C[C@]12Cc3cnn(-c4ccccc4)c3C=C1CC[C@@H]1[C@@H]2[C@@H](O)C[C@@]2(C)[C@H]1CC[C@]2(O)C(=O)CSc1ccc2ccccc2n1 | 14.8 | 60.1 | 82.3 | 101 | 69 |  |  |  |  |  |  |
| Cn1c(SCC(=O)[C@@]2(O)CC[C@H]3[C@@H]4CCC5=Cc6c(cnn6-c6ccccc6)C[C@]5(C)[C@H]4[C@@H](O)C[C@@]32C)nc2ccccc21 | 4.7 | 66.7 | 78 | 19.1 | 64 |  |  |  |  |  |  |
| Cn1c(SCC(=O)[C@@]2(O)CC[C@@]3(C)[C@@H]4CCC5=CC(=O)CC[C@]5(C)[C@H]4[C@@H](O)C[C@@]32C)nc2ccccc21 | 56.1 |  |  |  | 8 | 150 | 115 | 39 | 5 | 8.9 |  |
